Test results published in patent publication US9487819B2, “Quantitative genetically encoded optical reporter construct” (Cornell University, priority 2009, dated 2016).

B1: Photonus pyralis luciferase: 62 kD firefly luciferase, SEQ ID NO: 1 (protein, listed as Photonis pyralis)
chain: MEDAKNIKKGPAPFYPLEDGTAGEQLHKAMKRYALVPGTIAFTDAHIEVDITYAEYFEMSVRLAEAMKRYGLNTNHRIVVCSENSLQFFMPVLGALFIGVAVAPANDIYNERELLNSMGISQPTVVFVSKKGLQKILNVQKKLPIIQKIIIMDSKTDYQGFQSMYTFVTSHLPPGFNEYDFVPESFDRDKTIALIMNSSGSTGLPKGVALPHRTACVRFSHARDPIFGNQIIPDTAILSVVPFHHGFGMFTTLGYLICGFRVVLMYRFEEELFLRSLQDYKIQSALLVPTLFSFFAKSTLIDKYDLSNLHEIASGGAPLSKEVGEAVAKRFHLPGIRQGYGLTETTSAILITPEGDDKPGAVGKVVPFFEAKVVDLDTGKTLGVNQRGELCVRGPMIMSGYVNNPEATNALIDKDGWLHSGDIAYWDEDEHFFIVDRLKSLIKYKGYQVAPAELESILLQHPNIFDAGVAGLPDDDAGELPAAVVVLEHGKTMTEKEIVDYVASQVTTAKKLRGGVVFVDEVPKGLTGKLDARKIREILIKAKKGGKIAV

Key:
[1] = test system: [ATP] in nerve terminals of neurons; assay: Presynaptic [ATP] at rest reported by Syn-ATP under metabolic inhibitors; format: cell-based, rat; conditions: resting neurons, TTX to block action potential firing (FIG. 15)
Description: All experiments were performed using dissociated primary hippocampal neurons according to procedures that have been previously described in Ryan T A. J. Neurosci 19:1317-1323 (1999). Briefly, hippocampi from newborn rats (P2-P4) were removed and dissected. Prior to cell dissociation, the dendate gyrus was removed leaving a relatively pure population of CA3 & CA1 excitatory neurons and interneurons. […] For fluorescence and luminescence experiments cover slips were mounted in a rapid switching low volume perfusion chamber equipped with stimulus electrodes and mounted on the stage of an inverted microscope equipped with EMCCD detection and laser-based wide-field illumination. Chemiluminescence was imaged using the same apparatus as the fluorescence, however no excitation source was used during the detection of light.
On DIV 14-25, neurons were mounted in a custom-built physiological perfusion chamber with temperature control that allows direct control of field stimulation to drive action potential firing. […] Luminescence and fluorescence imaging were performed using an EM-CCD Andor Ixon, thinned back-illuminated sensor through a 1.3 NA 40× fluar objective. Neurons expressing Syn-ATP were perfused with 20 mM luciferin, one minute prior to and throughout the period during which the luminescence images was obtained. […]

[2] = maximal number of photons emitted; cited from earlier work

| Molecule | change of [ATP] at rest [1] | kcat [2] |
| --- | --- | --- |
| O=CC[C@@H](O)[C@H](O)[C@H](O)CO [2-deoxyglucose] | decreases |  |
| CC[C@H]1/C=C/C=C/C[C@@H](C)[C@H](O)[C@@](C)(O)C(=O)[C@@H](C)[C@H](O)[C@@H](C)C(=O)[C@@H](C)[C@H](O)[C@@H](C)/C=C/C(=O)O[C@@H]2[C@H](C)[C@H](CC1)O[C@]1(CC[C@H](C)[C@H](C[C@@H](C)O)O1)[C@H]2C [oligomycin] | does not change |  |
| B1 |  | approximately 1.6 per sec |
